Article PMC10945809 (Proceedings of the National Academy of Sciences of the …, 2024)

Molecular target: T1, human microsomal FMO1 (Homo sapiens, UniProt Q01740)
T1 sequence (Q01740 2-532): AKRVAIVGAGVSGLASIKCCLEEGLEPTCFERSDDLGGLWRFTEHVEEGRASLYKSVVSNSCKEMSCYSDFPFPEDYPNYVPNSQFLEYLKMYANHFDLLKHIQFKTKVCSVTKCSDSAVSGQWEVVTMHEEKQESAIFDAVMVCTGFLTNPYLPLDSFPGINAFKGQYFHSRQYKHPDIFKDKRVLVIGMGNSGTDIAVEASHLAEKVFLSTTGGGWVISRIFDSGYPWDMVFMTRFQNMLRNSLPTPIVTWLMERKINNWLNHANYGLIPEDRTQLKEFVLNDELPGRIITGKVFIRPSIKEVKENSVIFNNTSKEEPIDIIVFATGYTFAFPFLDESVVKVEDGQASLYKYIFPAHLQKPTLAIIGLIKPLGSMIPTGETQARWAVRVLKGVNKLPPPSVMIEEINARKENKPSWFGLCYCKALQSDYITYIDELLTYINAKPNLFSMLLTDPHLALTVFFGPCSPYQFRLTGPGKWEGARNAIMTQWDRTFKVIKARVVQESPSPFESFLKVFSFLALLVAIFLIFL
Test: absorption spectrum
Assay type: biochemical
Settings: PBS; microsomal FMO1 as positive control

Structure (SMILES): Cc1cc2nc3c(=O)[nH]c(=O)nc-3n(C[C@H](O)[C@H](O)[C@H](O)COP(=O)(O)OP(=O)(O)OC[C@H]3O[C@@H](n4cnc5c(N)ncnc54)[C@H](O)[C@@H]3O)c2cc1C [FAD]
- absorption spectrum: FAD bound to human microsomal FMO1 (orange)
